Measurements as given in patent US20230091810A1, “FIRST-IN-CLASS OF SHMT2 AND MTHFD2 INHIBITORS AS ANTITUMOR AGENTS” (Duquesne University of the Holy Spirit, priority 2017, published 2023).
Like-named read-outs stand apart in the source and are kept apart here.

How the values were obtained:
[1] = system: H460 cells; experiment: glycine/nucleoside protection of growth inhibition in H460 cells; assay type: cell-based, human; settings: for protection from growth inhibition by combined adenosine and glycine: adenosine 60 µM plus glycine 130 µM; for protection from growth inhibition by glycine or adenosine alone: glycine 130 µM or adenosine 60 µM, singly
Method: We also tested the protective effects of AICA (320 µM) which is metabolized to AICAR (ZMP) (AICARFTase substrate), thus circumventing the GARFTase step in de novo purine biosynthesis (27) (see FIG. 1). […] Analogous results were obtained with HCT116 and MIA PaCa-2 tumor cells (see FIG. 14).
For proliferation assays of the HCT116, H460, and MIA PaCa2 tumor cell lines, the cells were plated in 96-well plates in an identical manner to the CHO experiments, except that the maximal drug concentration was increased to 10 µM. Glycine/nucleoside protection experiments in CHO and tumor cell lines were performed in folate- and glycine-free RPMI 1640/10% dialyzed fetal bovine serum supplemented with 25 nM leucovorin without additions, or in the presence of adenosine (60 µM), thymidine (10 µM), glycine (130 µM) and/or 5-aminoimidazole-4-carboxamide (AICA) (320 µM). Growth of metabolite-treated cells was normalized to controls treated with metabolites and vehicle (i.e., DMSO) both singly and in combination. Treatments with all metabolites were performed in parallel on the same plate for a given drug.

[2] = system: RT16 (FR alpha) (CHO); experiment: proliferation assay, RT16 CHO cells expressing FR alpha only; assay type: cell-based, Chinese hamster; settings: folate-/glycine-free RPMI1640 with 25 nM leucovorin, 96 h, read-out: IC50s (SE) RT16 (FR alpha) (CHO)
Method: Proliferation assays were performed with engineered Chinese hamster ovary (CHO) cell lines R2 (transporter-null), PC43-10 (expresses RFC only), RT16 (FRα only), and R2/PCFT4 (PCFT only) cultured in folate-/glycine-free RPMI1640 supplemented with 25 nM leucovorin. Additional results are shown for HCT116 (colon tumor cells (CTC)), IGROV1 (epithelial ovarian cancer (EOC) cells), H460 (non-small cell lung cancer (NSCLC) cells), MIAPaCa-2 (pancreatic cancer (PaC) cells), and HPAC (PaC).
For proliferation assays with the CHO cell lines, the cells were treated with drugs (0-1 µM) in a 96-well plate (2000 cells/well) in glycine-free, nucleoside-free folate-free RPMI supplemented with 10% dialyzed fetal bovine serum, 1% penicillin/streptomycin, 2 mM L-glutamine, and 25 nM leucovorin (final volume 200 µL) over a 96 h incubation period at 37° C. with 5% CO2. The drugs were dissolved in DMSO; an equivalent amount of DMSO was added to the control (no addition) samples. To quantify viable cells, the media was removed and plates were washed once with 100 µL Dulbecco’s Phosphate-Buffered Saline (PBS), after which 100 µL PBS and 20 µL Cell Titer-blue (Promega) were added. Relative cell numbers were proportional to the fluorescence measured with a fluorescence plate reader (590 nm emission, 560 nm excitation). Background fluorescence (cell-free wells treated with Cell Titer-blue) was subtracted and these corrected values were normalized to results for cells treated in an identical manner without drugs.

[3] = system: HCT116 cells; experiment: targeted metabolomics with [2,3,3-2H]serine tracer, HCT116 cells; assay type: cell-based, human; settings: 10 µM drug; for increase of total serine: HCT116 WT cells, relative to WT controls; for M+1 serine: WT HCT116 cells
Text: (§1) Identification of the mitochondrial enzyme target for AGF291, AGF320, and AGF347 by targeted metabolomics. […] The cells were processed for LC-MS analyses of total serine, and of M+3, M+2, M+1, and M+0 (unlabeled) serine (where M+n represents species with n deuterium atoms). The results with the drug-treated cells were compared to those for untreated cells. For WT HCT116 cells, the results were compared to those for SHMT2 KO, MTHFD2 KO, and SHMT1 KO cells (KO of SHMT2, MTHFD2, and SHMT1, respectively (20)). For H460 cells, controls included non-targeted control (NTC) and SHMT2 shRNA knockdown (KD) cells.
(§2) Targeted Metabolomics. Targeted metabolomics were performed essentially as previously described (47, 53). Briefly, cells (H460, HCT116, MIA PaCa-2) (1 million cells /dish for vehicle-treated samples, 1.5 million cells/dish for drug-treated samples) were seeded in triplicate 60 mm dishes in 5 ml of folate-free RPMI (contains glycine and unlabeled serine) supplemented with 10% dialyzed fetal bovine serum, 1% penicillin/streptomycin, 2 mM L-glutamine, and 25 nM leucovorin. Cells were allowed to adhere for 24 h. […] After 16 h, the cells were washed with PBS (3×), the media was replaced with folate- and serine-free culture media (containing glycine) supplemented with 10% dialyzed fetal bovine serine, 25 nM leucovorin, and [2,3,3-^2H]serine (250 µM), including 10 µM drug or DMSO vehicle. The cells were incubated for 24 h. All incubations were at 37° C. with 5% CO2. The media was aspirated, and cells were washed (3×) rapidly (< 30 s) with 5 mL ice-cold PBS; metabolism was quickly quenched with methanol:water (80:20) at -80° C. Cells were allowed to rock on dry ice for 10 min to cover the entire dish with 80:20 methanol:water (at -80° C.), then harvested by scraping and pipetting into 1.5 mL Eppendorf tubes. The tubes were centrifuged (4° C., 14000 RPM, 10 min) to fully extract metabolites into the methanol:water supernatant. The protein pellet was used for normalization. The supernatants were collected and analyzed by reversed-phase ion-pairing chromatography coupled with negative-mode electrospray-ionization high-resolution mass spectrometry on a stand-alone Orbitrap (ThermoFisher Exactive). Raw metabolite values were adjusted to correct for normal ion distributions and normalized to total proteins from the post-extraction pellet by solubilizing with 0.5 N NaOH and using the Folin-phenol protein method (13). Values below the limit of detection were assigned a value of 100 for normalization. Results for drug-treated and SHMT2 KD cells were normalized to vehicle-treated WT ± formate or NTC ± formate samples, as appropriate.

[4] = system: H460 cells; experiment: targeted metabolomics with [2,3,3-2H]serine tracer, H460 cells; assay type: cell-based, human; settings: 10 µM drug
Text: as §1
as §2, with “The tubes were centrifuged (4° C., 14000 RPM, 10 min) to fully extract metabolites into the methanol:water supernatant. The protein pellet was used for normalization.” left out, “Raw metabolite values were adjusted to correct for normal ion distributions and normalized to total proteins from the post-extraction pellet by solubilizing with 0.5 N NaOH and using the Folin-phenol protein method (13). Values below the limit of detection were assigned a value of 100 for normalization. Results for drug-treated and SHMT2 KD cells were normalized to vehicle-treated WT ± formate or NTC ± formate samples, as appropriate.” left out

With `Nc1nc2ccn(CCCc3ccc(C(=O)N[C@@H](CCC(=O)O)C(=O)O)cc3)c2c(=O)[nH]1` [AGF291] the “protection from growth inhibition by combined adenosine and glycine” value [1] was “substantially protective”, the “protection from growth inhibition by glycine or adenosine alone” value [1] was “neither glycine nor adenosine alone was fully protective” and the IC50 ([2]; Cricetulus griseus, RT16) was 117 nM. The “increase of total serine” value [3] was ~ 10 fold, the “M+1 serine” value [3] was “nearly complete loss” and the “dTTP isotope distribution from [2,3,3-2H]serine” value (“dTTP isotope distribution” below) [4] was “M+1 dTTP without M+2 dTTP”.
`Nc1nc2ccn(CCCCCc3ccc(C(=O)N[C@@H](CCC(=O)O)C(=O)O)s3)c2c(=O)[nH]1` [AGF320] was tested, and the “reversal of growth inhibition by AICA (with glycine)” value ([1]; AICA 320 µM with glycine) was “modestly (and incompletely) reversed”, the “protection from growth inhibition by combined adenosine and glycine” value [1] was “substantially protective” and the “protection from growth inhibition by glycine or adenosine alone” value [1] was “neither glycine nor adenosine alone was fully protective”. The IC50 [2] was 156 nM, the “increase of total serine” value [3] was ~ 10 fold and the “M+1 serine” value [3] was “nearly complete loss”. For the same compound, the “dTTP isotope distribution” value [4] was “M+1 dTTP without M+2 dTTP”.
In the case of “(2-amino-4-oxo-3,4-dihydro-5H-pyrrolo[3,2-d]pyrimidin-5-yl)butyl)-2-fluorobenzoyl)-L-glutamic acid [AGF347]”, the “protection from growth inhibition by combined adenosine and glycine” value [1] is reported as “substantially protective”, the “protection from growth inhibition by glycine or adenosine alone” value [1] is reported as “neither glycine nor adenosine alone was fully protective” and the IC50 [2] is reported as 9.4 nM. The “increase of total serine” value [3] was ~ 10 fold, the “M+1 serine” value [3] was “nearly complete loss” and the “dTTP isotope distribution” value [4] was “M+1 dTTP without M+2 dTTP”.
